Assay results from publication PMC7961587, “Novel Cell Permeable Polymers of N-Substituted L-2,3-Diaminopropionic Acid (DAPEGs) and Cellular Consequences of Their Interactions with Nucleic Acids” (International Journal of Molecular Sciences, 2021).

Key:
HB2 and MDA-MB-231 cells [1] = experiment: Transfection with pmaxGFP plasmid and cytotoxicity of plasmid:compound complexes; format: cell-based, human; conditions: pmaxGFP:compound complex 4.62 × 10^−10 M
From the text: Figure 10 (A) Fluorescence imaging of HB-2 and MDA-MB-231 cells transfected with pmaxGFP plasmid mixed with compounds 5, 13, 14, or the commercially available transfection reagent (control). (B) Cytotoxicity of plasmid pmaxGFP:compound complex in HB2 and MDA-MB-231 cells at the concentration of the complex equal to 4.62 × 10^−10 M.
In this experiment, second-generation compounds (compounds 5, 13, and 14) were used as transfection reagents. See transfection procedure in methodology below. After gene expression, the medium was removed and cells were lysed with 0.5 M NaOH (100 µL/well), and the fluorescence intensity was analyzed using a microplate reader at excitation and emission wavelengths of 488 and 510 nm, respectively.
In this experiment, second-generation (GO2)n compounds (compounds 5, 13, and 14) were used as transfection reagents. HB2 and MDA-MB-231 were seeded in 96-well plates at a density of 5 × 10^3/well and 7 × 10^3/well in complete medium and grown until 60–70% confluency. […] The DNA concentration was determined using UV readout at 260/280 nm. […] Results were observed by fluorescence microscopy.

HB2 and MDA-MB-231 cells [2] = experiment: Cytotoxicity assay CCK-8; format: cell-based, human; conditions: CCK8, Figure S5; 1–100 µM; 2 h or 24 h
Procedure: Cell viability against cell-penetrating peptidomimetics was detected using the cell counting kit-8 (CCK-8) assay (Sigma Aldrich, Poznan, Poland). The HB2 and MDA-MB-231 cells were seeded into 96-well plates at a density of 5 × 10^3/well and 7 × 10^3/well, respectively, and incubated in complete medium (100 µL/well) for 48 h. Then, the medium was replaced with fresh medium (100 µL/well), and solutions of compounds at various concentrations (1, 5, 10, 20, 50, and 100 µM) were added; the cells were incubated for 2 h or 24 h. Cells incubated in media without any additives were used as control. After incubation, 10 µL/well of 2-(2-methoxy-4-nitrophenyl)-3-(4-nitrophenyl)-5-(2,4-disulfophenyl)-2H-tetrazolium, monosodium salt (WST-8) reagent was added according to the manufacturers’ instructions, and the mixture was incubated at 37 °C for 4 h. Cell viability was analyzed on the basis of formazan absorbance using a microplate reader (SPECTROstar Nano, BMG LABTECH, Ortenberg, Germany) at 450 nm.
Table 1S. Minimal charge to ratio (N/P) of each compoun d for efficient complexation with
DNA. *minimal N/P ratio resulting in effective complex formation based on EMSA. **ND ‐
No Sequence Minimal N/P ratio*
9 O2Oc‐[Dap(HO2)]6‐O2Oc‐NH2 No binding
Figure 5S. CCK8 cytotoxicity assay performed for three compounds (5, 13, and 14). Two
different cell lines were used: A) HB‐2 and B) MDA‐MB‐231 […]

N=C(N)NCCOCCOCC(=O)NC[C@H](NC(=O)COCCOCCN)C(=O)N[C@@H](CNC(=O)COCCOCCNC(=N)N)C(=O)N[C@@H](CNC(=O)COCCOCCNC(=N)N)C(=O)N[C@@H](CNC(=O)COCCOCCNC(=N)N)C(=O)N[C@@H](CNC(=O)COCCOCCNC(=N)N)C(=O)N[C@@H](CNC(=O)COCCOCCNC(=N)N)C(=O)N[C@@H](CNC(=O)COCCOCCNC(=N)N)C(=O)N[C@@H](CNC(=O)COCCOCCNC(=N)N)C(=O)NCCOCCOCC(N)=O [compound 14, O2Oc-[Dap(GO2)]8-O2Oc-NH2]
Post-transfection cytotoxicity (HB2 and MDA-MB-231 cells [1]): 30% | Cytotoxicity (CCK-8), in words (HB2 and MDA-MB-231 cells [2]): low cytotoxicity
